Values of other authors in US20040202731A1, “Rosmarinic acid composition” (priority 2003, published 2004).

Key:
[1] = in vivo
[2] = test system: rat liver microsomes; conditions: concentration of 25 μg/ml
[3] = test system: human PMNL; conditions: concentrations of 10^-5 to 10^-3 M
[4] = test system: complement

SMILES: O=C(/C=C/c1ccc(O)c(O)c1)O[C@H](Cc1ccc(O)c(O)c1)C(=O)O [Rosmarinic acid]
- absorption from the gastrointestinal tract and from the skin [1]: well absorbed
- inhibition of lipid peroxidation of rat liver microsomes [2]: 90%
- formation of 5-HETE from human PMNL [3]: inhibited
- formation of LTB4 from human PMNL [3]: inhibited
- endotoxin-induced activation of complement and concomitant formation of prostacyclin [4]: suppresses

SMILES: CC1(C)C2CCC1(C)C(O)C2 (stereo not drawn) [Borneol, endo-1,7,7-trimethyl-bicyclo[2.2.1]heptan-2-ol]
- stability (turns to camphor with oxidation): highly unstable
